The text below walks through data of patent publication US20250214996A1, “SALTS AND SOLID FORMS OF AN ESTROGEN RECEPTOR ANTAGONIST” (Olema Pharmaceuticals, Inc., priority 2022, published 2025).

By solubility is commonly meant how much of the substance goes into solution per volume. One may read the Solubility as the dissolved amount per volume that the medium holds.

The nature of series [1]: Solubility by dynamic method. Type of series: physicochemical. Conditions: 25° C. The protocol: […] Solubility was measured by the dynamic method and gravimetric method.
Dynamic method: Under the condition of a certain amount of solute and certain temperature, solvent was gradually added with stirring for 15 min to reach equilibrium. When solute is completely dissolved, amount of solvent was recorded and the solubility calculated.

Series [2] in a line: Kinetic solubility estimate, solvent aliquot addition, visual observation. Type of series: physicochemical. The conditions noted are these: ambient temperature. As for the experimental part:
A polymorph screen was conducted using amorphous Compound 1. To help design the experiments, kinetic solubilities of the compound were estimated. The estimation was done using a solvent aliquot addition method, and dissolution was judged by visual observation. In Table 14, solvent ratios (v/v) are approximate; values are rounded to nearest whole number. If complete dissolution was achieved by one aliquot addition, solubilities were reported as “>”; if […], solubilities were reported as “<”. The actual solubility may be larger than the value calculated due to the use of solvent aliquots that were too large or due to a slow rate of dissolution.
A polymorph screen was conducted using Compound 1 Fumarate Form A Ethyl Acetate Solvate. The screen consisted primarily of long term slurry experiments. To help design screen experiments, kinetic solubilities of Fumarate Form A Ethyl Acetate Solvate were estimated. The estimation was done on a 3-11 mg scale using a solvent aliquot addition method, and dissolution was judged by visual observation. Solubilities are estimated at ambient temperature and reported to the nearest mg/mL; if complete dissolution was achieved by one aliquot addition, solubilites were reported as […]

Series [3] in a line: Pharmacokinetic study in Beagle dogs, oral capsule. The format is in vivo. The protocol: Compound 1 […] in two different forms was administered orally (PO) to male and female Beagle dogs. Blood was serially collected up to 144 hours post dose for determination of plasma pharmacokinetic analysis.
Animals were healthy at the start of the study and were between 1 and 6.5 years of age. Initial body weights were recorded at the start of the study and general health observations were recorded at each blood collection time point.
Each Group contained 3 male and 1 female dog. Capsules were administered by placing the capsule to the back of the throat, followed by a 10 mL flush with drinking water.
Plasma concentrations of Compound 1 were determined by LC-MS/MS. Pharmacokinetic parameters were determined using Phoenix WinNonlin (v8.0) non-compartmental analyses.

Where [4] appears, read: dose 5.34 mg/kg (Group 1), 7.4 mg/kg (Group 2), plasma.

≈ marks a conversion by molar mass, not a printed value. Marks after values point to notes of the source that are not given here. Some results are limits rather than exact numbers.

`O=C(O)/C=C/C(=O)O` [Fumaric acid]: in series [1] (isopropanol), the “solubility in isopropanol” value is reported as “relatively low solubility”. The solubility at 15 min in series [1] (organic solvent or mixture, thermodynamic from solid, Dynamic, IPA) was determined as 34.3 mg/mL (≈ 296 mM).
Take `CCCN1CC(Oc2ccc([C@@H]3c4[nH]c5ccccc5c4C[C@@H](C)N3CC(C)(C)F)cc2)C1.O=C(O)/C=C/C(=O)O`: the “Solubility” value in series [2] (2-BuOH) is on record as 17 mg/mL; in series [2] (2-McTHF), 32 mg/mL; in series [2] (Anisole), less than 1 mg/mL; in series [2] (DCE), less than 9 mg/mL; in series [2] (Dioxane) it was greater than 104 mg/mL; in series [2] (IPA), 20 mg/mL. The “Solubility” value in series [2] (IPA/water (50/50)) was greater than 124 mg/mL; in series [2] (MIBK) it was 4 mg/mL; in series [2] (MTBE), 2 mg/mL; in series [2] (TFE), greater than 100 mg/mL. The “Solubility (mg/mL)” value in series [2] (ACN, re-precipitated after first aliquot) is <2* mg/mL; in series [2] (DCE/EtOH (96/4)), “Dissolved at 8 mg/mL”; in series [2] (t-BuOAc, re-precipitated after first aliquot) it was 1* mg/mL. Besides, in series [3] (dose 5.34 mg/kg (Group 1), 7.4 mg/kg (Group 2)), the “AUC∞” value came out at 17271 ng·h/mL. For the same compound, in series [3] (setting [4]), the “MRTlast” value is given as 39.8 h. Further, in series [3] (setting [4]), the “t1/2” value is recorded as 49.6 h. For the same compound, the “tmax” value in series [3] (setting [4]) was 3.5 h. The “AUClast/D” value in series [3] (dose-normalised) amounted to 2001 kg·ng·h/mL/mg. In addition, the “AUC∞/D” value in series [3] (dose-normalised) was 2351 kg·ng·h/mL/mg.
